Entries after “also recorded” stand apart in the source; their conditions may differ. Values belong to the molecule of their own block, whether it stands above or below them. Non-standard residues stand in square brackets, D forms with d. Residues, ends and D or L forms follow the SMILES beside them. Tyr(3,5-I2) = N[C@@H](Cc1cc(I)c(O)c(I)c1)C(=O)O; AEEA = NCCOCCOCC(=O)O
Legend:
[1] = Ex vivo micro-CT contrast enhancement of murine articular cartilage: DIPIC vs PTA vs iopamidol; parameters: species or system mouse; conditions: 20 mg iodine/ml (PTA: 1% in 70% ethanol); for Thickness of cartilage assessed with the contrast agent: ex vivo mouse tibiae; for Thickness of cartilage assessed with the contrast agent / Difference in X-ray absorption between cartilage and background: micro-CT absorption profile; for X-ray absorption of background / X-ray absorption of cartilage / Difference in X-ray absorption between cartilage and background: overnight incubation of mouse tibiae (n = 3); for X-ray absorption of background / X-ray absorption of cartilage: mean ± SEM
Description: Ex vivo imaging with DIPIC, PTA or iopamidol. Mice were culled through inhalation of CO2 and their knee joints harvested and split under a dissection microscope. Tibiae (n = 3) were finely dissected to remove soft tissue and incubated overnight either in DIT peptide or iopamidol (Santa Cruz Biotechnology, Dallas, Texas, USA) at 20 mg iodine/ml (20 μl) or 1% PTA (Sigma) in 70% ethanol. To determine the contrast achieved in the articular cartilage at equilibrium, proximal tibiae were imaged by micro-CT while incubated in each contrast agent. […] Following imaging, tibiae were washed in saline and imaged in fresh saline until the articular cartilage could no longer be detected.
Generation of colour-coded absorption maps. To calibrate micro-CT scans in Hounsfield units (HU), air and water were scanned and reconstructed. The average grey level intensity within a cylindrical VOI was obtained from image histograms in ImageJ (air = -832.85, water = 152.54). Based on knowledge of the average grey level intensity and the corresponding HU (air = -1000, water = 0), the following linear transformation was derived (equation 2): […]
Using this calibration, the grey level intensity of each pixel was linearly transformed into X-ray absorption (HU) for each micro-CT image dataset using Matlab (R2014b, MathWorks, Natick, Massachusetts, USA). To enhance the difference between X-ray absorption of each tissue, colour-coded maps, also expressed in HU, were generated in Matlab by assigning a look up table (LUT) of 256 colours to each image dataset.

[2] = biological target: T1, murine articular cartilage (type II collagen) (Mus musculus, UniProt P28481); assay: Fluorescence histology of murine cartilage after intra-articular injection of DOTAM-Cy5.5 probes; type: in vivo; conditions: 24 h after intra-articular injection into mouse knee joints; probes of ref 20
T1 construct: Fixed cryosections of murine tibiae (10 µm) 24 h after intra-articular injection of Ac-WYRGRL-DOTAM-Cy5.5 or Ac-YRLGRW-DOTAM-Cy5.5; from tissue; host or cells: articular cartilage of the mouse knee joint (in vivo injection, histology of tibial cryosections)
Description: Fluorescence immunohistochemistry for localisation of Ac-WYRGRL-DOTAM-Cy5.5. Fixed cryosections of murine tibiae (10 µm) 24 h after intra-articular injection of Ac-WYRGRL-DOTAM-Cy5.5 or Ac-YRLGRW-DOTAM-Cy5.5 [1] were blocked with 10% goat serum, stained with rat anti-heparan sulfate proteoglycan antibody (A7L6, Abcam), washed three times with PBS-Tween 0.05% (v/v), labelled with Alexa Fluor 488 goat anti-rat IgG (H+L, Abcam) and washed three times with PBS-Tween 0.05% (v/v) before imaging. Cryosections were viewed under a Nikon TE2000-U Ultraview confocal microscope (PerkinElmer, Seer Green, UK) using a 488 nm excitation laser with 525 nm emission filter to visualise the Alexa Fluor 488 label (green false colour), and a 640 nm excitation laser with 700 nm emission filter to visualise the Cy5.5 label (red false colour).

[3] = Solubility of purified DIT peptides at concentrations needed for radiocontrast; conditions: purified peptide (≥ 95% by HPLC), 10% DMSO/water, at 20 mg iodine/ml as well as 2 mg iodine/ml (lowest concentration for contrast)
Source text: An integrated design, placing DIT into the core of WYRGRL (3) was followed by the addition of a further DIT at the N-terminus (4). […] To improve solubility, both arginine residues in 3 and 4 were replaced with lysine to give 5 and 6, respectively.

T1 sequence (P28481 182-1241 limits assumed): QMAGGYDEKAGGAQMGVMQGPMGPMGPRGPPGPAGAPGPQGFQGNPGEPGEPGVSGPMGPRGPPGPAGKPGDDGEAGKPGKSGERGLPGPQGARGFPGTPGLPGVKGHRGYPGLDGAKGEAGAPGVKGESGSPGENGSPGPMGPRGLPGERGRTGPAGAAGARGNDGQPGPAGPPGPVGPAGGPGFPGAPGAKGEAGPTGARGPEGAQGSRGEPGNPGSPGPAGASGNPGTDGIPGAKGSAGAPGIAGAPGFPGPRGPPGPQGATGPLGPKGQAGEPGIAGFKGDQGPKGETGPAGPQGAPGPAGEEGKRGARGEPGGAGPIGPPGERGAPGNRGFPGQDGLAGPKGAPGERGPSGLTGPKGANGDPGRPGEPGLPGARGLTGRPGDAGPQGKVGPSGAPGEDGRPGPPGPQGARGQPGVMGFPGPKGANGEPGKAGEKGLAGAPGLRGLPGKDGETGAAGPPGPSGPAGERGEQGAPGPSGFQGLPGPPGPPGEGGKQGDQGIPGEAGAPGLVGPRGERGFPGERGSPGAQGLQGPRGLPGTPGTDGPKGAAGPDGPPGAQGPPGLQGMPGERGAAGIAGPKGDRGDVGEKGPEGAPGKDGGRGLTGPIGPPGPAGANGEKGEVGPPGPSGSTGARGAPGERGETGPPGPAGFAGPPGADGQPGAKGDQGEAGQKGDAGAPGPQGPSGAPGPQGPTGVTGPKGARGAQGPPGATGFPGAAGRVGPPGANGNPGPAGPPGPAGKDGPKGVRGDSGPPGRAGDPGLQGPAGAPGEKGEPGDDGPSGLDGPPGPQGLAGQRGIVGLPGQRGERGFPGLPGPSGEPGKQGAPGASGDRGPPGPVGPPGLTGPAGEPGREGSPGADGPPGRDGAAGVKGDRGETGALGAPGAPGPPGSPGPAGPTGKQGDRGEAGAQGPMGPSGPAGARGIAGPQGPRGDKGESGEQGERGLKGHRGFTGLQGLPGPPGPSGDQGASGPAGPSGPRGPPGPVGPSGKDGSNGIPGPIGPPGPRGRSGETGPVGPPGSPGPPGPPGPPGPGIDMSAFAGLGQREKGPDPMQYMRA

Molecule: C[C@H](O)C(=O)Nc1c(I)c(C(=O)NC(CO)CO)c(I)c(C(=O)NC(CO)CO)c1I [iopamidol]
- Thickness of cartilage assessed with the contrast agent [1]: 70 μm
- X-ray absorption of background [1]: 875 ± 12 HU
- X-ray absorption of cartilage [1]: 678 ± 29 HU
- Difference in X-ray absorption between cartilage and background [1]: 0.8 fold

Molecule: Ac-WYRGRL-DOTAM-Cy5.5 [targeting peptide conjugated to a macrocyclic DOTAM scaffold with a Cy5.5 fluorophore]
- Binding of probe to cartilage (Cy5.5 fluorescence histology) [2]: strong binding of the targeted probe to cartilage; also recorded: showed binding to cartilage

- Solubility of pure peptide [3]: insoluble
Molecule: CC(C)C[C@H](NC(=O)[C@H](CCCCN)NC(=O)CNC(=O)[C@H](CCCCN)NC(=O)[C@H](Cc1ccc(O)cc1)NC(=O)[C@H](Cc1c[nH]c2ccccc12)NC(=O)COCCOCCNC(=O)[C@H](Cc1cc(I)c(O)c(I)c1)NC(=O)[C@@H](N)Cc1cc(I)c(O)c(I)c1)C(=O)O [compound 12] (H-[Tyr(3,5-I2)][Tyr(3,5-I2)][AEEA]WYKGKL-OH)

- Solubility of pure peptide [3]: insoluble
Molecule: CC(C)C[C@H](NC(=O)[C@H](CCCCN)NC(=O)CNC(=O)[C@H](CCCCN)NC(=O)[C@H](Cc1cc(I)c(O)c(I)c1)NC(=O)[C@@H](N)Cc1c[nH]c2ccccc12)C(=O)NCCOCCOCC(=O)N[C@@H](Cc1cc(I)c(O)c(I)c1)C(=O)NCC(=O)O [compound 14] (H-W[Tyr(3,5-I2)]KGKL[AEEA][Tyr(3,5-I2)]G-OH)

Molecule: Ac-YRLGRW-DOTAM-Cy5.5 [scrambled control peptide-DOTAM-Cy5.5 probe]
- Binding of probe to cartilage (Cy5.5 fluorescence histology) [2]: Only targeted probe (F) showed binding to cartilage

- Solubility of pure peptide [3]: poor solubility
Molecule: CC(C)C[C@H](NC(=O)[C@H](CCCNC(=N)N)NC(=O)CNC(=O)[C@H](CCCNC(=N)N)NC(=O)[C@H](Cc1cc(I)c(O)c(I)c1)NC(=O)[C@@H](N)Cc1c[nH]c2ccccc12)C(=O)O [compound 3] (H-W[Tyr(3,5-I2)]RGRL-OH)

Molecule: CC(C)C[C@H](NC(=O)[C@H](CCCCN)NC(=O)CNC(=O)[C@H](CCCCN)NC(=O)[C@H](Cc1cc(I)c(O)c(I)c1)NC(=O)[C@H](Cc1c[nH]c2ccccc12)NC(=O)[C@@H](N)Cc1cc(I)c(O)c(I)c1)C(=O)O [peptide 6] (H-[Tyr(3,5-I2)]W[Tyr(3,5-I2)]KGKL-OH)
- Solubility of pure peptide [3]: insoluble in solution

Molecule: O=P(O)(O)O.[O]=[W](=[O])=[O].[O]=[W](=[O])=[O].[O]=[W](=[O])=[O].[O]=[W](=[O])=[O].[O]=[W](=[O])=[O].[O]=[W](=[O])=[O].[O]=[W](=[O])=[O].[O]=[W](=[O])=[O].[O]=[W](=[O])=[O].[O]=[W](=[O])=[O].[O]=[W](=[O])=[O].[O]=[W](=[O])=[O] [PTA, phosphotungstic acid]
- Thickness of cartilage assessed with the contrast agent [1]: 110 μm
- X-ray absorption of background [1]: 342 ± 64 HU
- X-ray absorption of cartilage [1]: 3657 ± 253 HU
- Difference in X-ray absorption between cartilage and background [1]: 10.7 fold

- Solubility of pure peptide [3]: poor solubility
Molecule: CC(C)C[C@H](NC(=O)[C@H](CCCNC(=N)N)NC(=O)CNC(=O)[C@H](CCCNC(=N)N)NC(=O)[C@H](Cc1cc(I)c(O)c(I)c1)NC(=O)[C@H](Cc1c[nH]c2ccccc12)NC(=O)[C@@H](N)Cc1cc(I)c(O)c(I)c1)C(=O)O [compound 4] (H-[Tyr(3,5-I2)]W[Tyr(3,5-I2)]RGRL-OH)
